# In PubChem BioAssay (NCI):
# Values joined by “and” are separate entries in the source; they are usually repeats but may differ in a detail not shown here. Equal entries are not always repeated.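 These data come from cells grown in 96-well plates and exposed to compound for 48 hours at five concentrations. GI50 marks 50% less growth. TGI: concentration producing complete growth inhibition.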
# Tested on: M19-MEL melanoma
# Experiment: DTP human tumour cell line panel, 48 h
Structure (SMILES),GI50 [µM],TGI
CCOc1ccccc1NC(=O)C(C#N)C1=C(Cl)C(=O)c2ccccc2C1=O (configuration not stated),0.303,0.351 µM and 0.872 µM

# Tested on: DMS 114 small cell lung
# Experiment: DTP human tumour cell line panel, 48 h
Structure (SMILES),TGI,GI50 [µM]
OCC(O)CNc1ccnc2cc(Cl)ccc12 (configuration not stated),> 100 µM,
Cc1cccc(C(C)C)c1NC(=O)C(=O)C(C(=O)c1ccccc1F)C1OC(=O)c2ccccc21 (configuration not stated),36.1 µM,
CC1=C(c2cc(C(=O)Nc3ccc(Cl)cc3)nc(=S)[nH]2)Sc2ccccc2N1,> 100 µM,
CC1=C(C(=O)NNS(=O)(=O)c2ccc(C)cc2)CC(C(=O)NNS(=O)(=O)c2ccc(C)cc2)=C(C)N1,> 100 µM,
[F][Sn]([F])([c]1ccccc1)[c]1ccccc1,5.8 µM,2
Cc1cc(C(C)(C)C)cc(Cc2cc(C(C)(C)C)cc(Cc3cc(C(C)(C)C)cc(C)c3O)c2O)c1O,12.1 µM,
COC(=O)/C(=C\c1ccc(N(CCC#N)CCC#N)cc1)NC(=O)c1cc([N+](=O)[O-])ccc1Cl,> 100 µM,
COC1=C(Br)C(=O)c2nc(C)ccc2C1=O,31.6 µM,
C/C(CCn1[nH]c(=O)ccc1=O)=N\OCCCc1ccccc1,> 100 µM,
COC(=O)c1cccc2cccc(C(=O)Nc3ccc(Cl)cc3)c12,> 100 µM,
CC(=O)OC1C2CCC1C1C2C2(Cl)C(Cl)=C(Cl)C1(Cl)C2(Cl)Cl (configuration not stated),26.7 µM,
CC(C(=O)n1c2ccccc2c2ccccc21)N(c1ccccc1)c1ccccc1 (configuration not stated),32.5 µM,
CCOC(=O)Cn1c(=O)n(C)c(=O)c2c1ncn2Cc1ccccc1,> 100 µM,
CCCCc1c2c(nc3c1CCC/C3=C\c1ccccc1)/C(=C/c1ccccc1)CCC2,> 100 µM,
CC(C)(C)OC(=O)N1N=NC2C1C1CC(OCc3ccccc3)(OCc3ccccc3)C2O1 (configuration not stated),40.6 µM,
O=C1C(=O)N(c2cc(Cl)ccc2Cl)C(=O)C(=O)C1c1nc2ccccc2o1,> 100 µM,
CC1=C(C(=O)Nc2ccccc2)C(c2ccc(C3C(C(=O)Nc4ccccc4)=C(C)NC(C)=C3C(=O)Nc3ccccc3)cc2)C(C(=O)Nc2ccccc2)=C(C)N1,17.8 µM,
O=c1c2ccccc2nc(-c2ccccc2)n1NC(=S)Nc1ccccc1,73.7 µM,
CCOC(=O)/C(=C/c1cccc(C#N)c1)N(CC)CC,> 100 µM,
O=S1(=O)OCCOS(=O)(=O)C1Cl,> 100 µM,
COc1cc(C2C(C(=O)Nc3cc(F)c(F)cc3F)=C(C)NC(C)=C2C(=O)Nc2cc(F)c(F)cc2F)ccc1O,41.8 µM,
O=c1nc(-c2ccccc2)cc(-c2ccccc2O)[nH]1,> 100 µM,
Oc1ccc(Br)cc1C=Nc1ccc(N=Cc2cc(Br)ccc2O)cc1,> 100 µM,
CCOc1ccccc1NC(=O)C(=O)Cc1nc2ccccc2s1,> 100 µM,
C=CCn1c2c(sc1=S)C(S)N=CN2 (configuration not stated),> 100 µM,
Cc1cccc(N=C2NC(=O)C(CC(=O)Nc3cccc(C)c3C)S2)c1 (configuration not stated),> 100 µM,
O=C(O)CSc1n[nH]c(Cc2ccccc2)n1,> 100 µM,
CCOc1ccccc1NC(=O)C(C#N)C1=C(Cl)C(=O)c2ccccc2C1=O (configuration not stated),2.16 µM and 3.85 µM,1.66

# Tested on: XF 498 CNS
# Experiment: DTP human tumour cell line panel, 48 h
Structure (SMILES),TGI,GI50 [µM]
OCC(O)CNc1ccnc2cc(Cl)ccc12 (configuration not stated),> 100 µM,
Cc1cccc(C(C)C)c1NC(=O)C(=O)C(C(=O)c1ccccc1F)C1OC(=O)c2ccccc21 (configuration not stated),23.3 µM,
Cc1cccc(C)c1NC(=O)C(=O)CC(=O)c1cccc([N+](=O)[O-])c1,> 100 µM,
CC1=C(c2cc(C(=O)Nc3ccc(Cl)cc3)nc(=S)[nH]2)Sc2ccccc2N1,> 100 µM,
O=C(O)CN(c1ccccc1)S(=O)(=O)c1ccc([N+](=O)[O-])cc1,> 100 µM,
CC1=C(C(=O)NNS(=O)(=O)c2ccc(C)cc2)CC(C(=O)NNS(=O)(=O)c2ccc(C)cc2)=C(C)N1,> 100 µM,
[F][Sn]([F])([c]1ccccc1)[c]1ccccc1,3.45 µM,1.99
N#CC(C(=O)CCC(=O)Nc1cccc(C(F)(F)F)c1)c1ccc(Cl)cc1 (configuration not stated),> 100 µM,
Cc1cc(C(C)(C)C)cc(Cc2cc(C(C)(C)C)cc(Cc3cc(C(C)(C)C)cc(C)c3O)c2O)c1O,4.13 µM,
C/C(CCn1[nH]c(=O)ccc1=O)=N\OCCCc1ccccc1,> 100 µM,
COC(=O)c1cccc2cccc(C(=O)Nc3ccc(Cl)cc3)c12,> 100 µM,
CC(=O)OC1C2CCC1C1C2C2(Cl)C(Cl)=C(Cl)C1(Cl)C2(Cl)Cl (configuration not stated),23.1 µM,
CCOC(=O)Cn1c(=O)n(C)c(=O)c2c1ncn2Cc1ccccc1,> 100 µM,
CCCCc1c2c(nc3c1CCC/C3=C\c1ccccc1)/C(=C/c1ccccc1)CCC2,> 100 µM,
CC(C)(C)OC(=O)N1N=NC2C1C1CC(OCc3ccccc3)(OCc3ccccc3)C2O1 (configuration not stated),30.3 µM,
O=C1C(=O)N(c2cc(Cl)ccc2Cl)C(=O)C(=O)C1c1nc2ccccc2o1,> 100 µM,
CC1=C(C(=O)Nc2ccccc2)C(c2ccc(C3C(C(=O)Nc4ccccc4)=C(C)NC(C)=C3C(=O)Nc3ccccc3)cc2)C(C(=O)Nc2ccccc2)=C(C)N1,20.5 µM,
CCOC(=O)/C(=C/c1cccc(C#N)c1)N(CC)CC,> 100 µM,
COc1cc(C2C(C(=O)Nc3cc(F)c(F)cc3F)=C(C)NC(C)=C2C(=O)Nc2cc(F)c(F)cc2F)ccc1O,33.1 µM,
O=c1nc(-c2ccccc2)cc(-c2ccccc2O)[nH]1,> 100 µM,
CCOc1ccccc1NC(=O)C(=O)Cc1nc2ccccc2s1,> 100 µM,
C=CCn1c2c(sc1=S)C(S)N=CN2 (configuration not stated),> 100 µM,
Cc1cccc(N=C2NC(=O)C(CC(=O)Nc3cccc(C)c3C)S2)c1 (configuration not stated),> 100 µM,
O=C(O)CSc1n[nH]c(Cc2ccccc2)n1,> 100 µM,
CCOc1ccccc1NC(=O)C(C#N)C1=C(Cl)C(=O)c2ccccc2C1=O (configuration not stated),3.75 µM and 3.24 µM,1.83

# Tested on: KM20L2 colon
# Experiment: DTP human tumour cell line panel, 48 h
row,Structure (SMILES),TGI [µM]
1,OCC(O)CNc1ccnc2cc(Cl)ccc12 (configuration not stated),> 100
2,Cc1cccc(C(C)C)c1NC(=O)C(=O)C(C(=O)c1ccccc1F)C1OC(=O)c2ccccc21 (configuration not stated),76.5
3,Cc1cccc(C)c1NC(=O)C(=O)CC(=O)c1cccc([N+](=O)[O-])c1,> 100
